The results in this text go back to PubChem BioAssay (NCI).

Several values for one entry are separate records, joined by “and”; a condition that tells them apart may be missing. Identical values can stand only once.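 In this assay, cells in 96-well plates receive the compound at five concentrations for 48 hours. Endpoints are linearly interpolated between the surrounding concentrations. GI50 is the concentration that inhibits growth by half. TGI: concentration producing complete growth inhibition.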 Some results are limits rather than exact numbers.

Test systems include SK-MEL-2 melanoma; NCI-H522 lung; MDA-MB-231 breast; SF-539 CNS; SW-620 colon; TK-10 renal; EKVX NSCLC; OVCAR-8 ovarian; SK-MEL-5 melanoma; SN12C renal.
Assay in all cases: DTP human tumour cell line panel, 48 h

Take `COc1ccc(C(=O)c2cc3c(N)c(C(=O)Nc4cccc5ccccc45)sc3nc2C)cc1`: the GI50 was more than 50 µM in the assay with SK-MEL-2 melanoma; 0.226 µM in the assay on NCI-H522 lung; 0.271 µM with MDA-MB-231 breast; 0.126 µM with SF-539 CNS; 0.203 µM in the assay with SW-620 colon; more than 50 µM in the assay with TK-10 renal. Further, the GI50 in the assay with EKVX NSCLC was 0.294 µM; in the assay with OVCAR-8 ovarian, 0.285 µM; in the assay on SK-MEL-5 melanoma it was 0.193 µM; with SN12C renal it was 0.32 µM. In addition, the TGI in the assay with SK-MEL-2 melanoma, with NCI-H522 lung, in the assay with MDA-MB-231 breast, in the assay on SW-620 colon, in the assay on TK-10 renal and in the assay on EKVX NSCLC was more than 50 µM throughout. For the same compound, the TGI in the assay on OVCAR-8 ovarian is more than 50 µM; with SK-MEL-5 melanoma it was 1.4 µM; in the assay on SN12C renal, more than 50 µM.

Take `COc1cccc(-n2ncc3c(N/N=C/c4ccncc4)ncnc32)c1`: the GI50 is 4.33 µM in the assay with SK-MEL-2 melanoma; more than 14.5 µM in the assay on NCI-H522 lung; 3.51 µM in the assay on MDA-MB-231 breast; 4.27 µM in the assay with SF-539 CNS; 5.22 µM with SW-620 colon; 2.75 µM in the assay on TK-10 renal. The GI50 with EKVX NSCLC is more than 25 µM; with OVCAR-8 ovarian it was 4.88 µM; in the assay with SK-MEL-5 melanoma, 0.799 µM; in the assay with SN12C renal it was 4.95 µM. The TGI in the assay on SK-MEL-2 melanoma, with NCI-H522 lung, with MDA-MB-231 breast, with SF-539 CNS, in the assay with SW-620 colon and in the assay on TK-10 renal was more than 25 µM each time. For the same compound, the TGI is more than 25 µM in the assay on EKVX NSCLC, more than 25 µM with OVCAR-8 ovarian, more than 9.75 µM with SK-MEL-5 melanoma and more than 25 µM in the assay with SN12C renal.

Take `CC[C@H](CO)Nc1nc(NCc2ccccc2)n2ncc(C(C)C)c2n1`: the GI50 in the assay on SK-MEL-2 melanoma is 1.47 µM; in the assay with NCI-H522 lung, 1.46 µM; in the assay on MDA-MB-231 breast, 2.37 µM; with SF-539 CNS, 1.22 µM; in the assay on SW-620 colon, 1.38 µM; in the assay on TK-10 renal it was 2 µM. Moreover, the GI50 with EKVX NSCLC was 2.41 µM; in the assay with OVCAR-8 ovarian, 2.15 µM; in the assay with SK-MEL-5 melanoma it was 1.78 µM; with SN12C renal it was 2.41 µM. Also, the TGI with SK-MEL-2 melanoma was 6 µM; with NCI-H522 lung, 8.98 µM; in the assay on MDA-MB-231 breast, 9.47 µM; in the assay on SF-539 CNS, 3.62 µM; in the assay on SW-620 colon, 5.56 µM; in the assay with TK-10 renal, 10.9 µM. Besides, the TGI is 9.13 µM in the assay with EKVX NSCLC, 54.8 µM with OVCAR-8 ovarian, 4.96 µM in the assay on SK-MEL-5 melanoma and 14.4 µM in the assay with SN12C renal.

For the compound `CCOc1ccccc1N=Nc1c(C)[nH]n(-c2nc(-c3ccccc3)cs2)c1=O`, the GI50 is 27.3 µM in the assay on SK-MEL-2 melanoma; 22.1 µM with NCI-H522 lung; 44 µM in the assay on MDA-MB-231 breast; 27.5 µM in the assay with SF-539 CNS; more than 100 µM with SW-620 colon; 43.4 µM in the assay with TK-10 renal. Moreover, the GI50 is 32.6 µM with EKVX NSCLC, 29 µM with OVCAR-8 ovarian, 41.6 µM in the assay on SK-MEL-5 melanoma and more than 94.8 µM in the assay on SN12C renal. The TGI in the assay with SK-MEL-2 melanoma is more than 100 µM; in the assay on NCI-H522 lung, 87.6 µM; in the assay with MDA-MB-231 breast, more than 100 µM; with SF-539 CNS, more than 100 µM; in the assay on SW-620 colon, more than 100 µM; in the assay on TK-10 renal, more than 94.2 µM. Further, the TGI with EKVX NSCLC, in the assay with OVCAR-8 ovarian, in the assay on SK-MEL-5 melanoma and with SN12C renal was more than 100 µM each time.

For the compound `O=C(NC[C@H](O)CO)c1ccncc1Nc1ccc(I)cc1F`, the GI50 in the assay on SK-MEL-2 melanoma is 0.00484 µM and < 0.01 µM; with NCI-H522 lung, 4.95 µM and 33.2 µM; with MDA-MB-231 breast, 0.154 µM and 0.348 µM; in the assay with SF-539 CNS, > 10 µM and 23.2 µM; in the assay on SW-620 colon, 0.0144 µM and 0.0188 µM; in the assay with EKVX NSCLC, 0.194 µM and 0.313 µM. The GI50 in the assay on OVCAR-8 ovarian was > 10 µM and 37.4 µM; with SK-MEL-5 melanoma, 7.7 µM; in the assay with SN12C renal, > 7.13 µM and 7.74 µM. Further, the TGI is 0.0923 µM and 0.0599 µM in the assay with SK-MEL-2 melanoma; more than 100 µM with NCI-H522 lung; > 10 µM and 46.7 µM in the assay on MDA-MB-231 breast; more than 100 µM in the assay on SF-539 CNS; more than 100 µM with SW-620 colon; more than 100 µM in the assay with TK-10 renal. The TGI with EKVX NSCLC, in the assay with OVCAR-8 ovarian, in the assay on SK-MEL-5 melanoma and in the assay on SN12C renal was more than 100 µM throughout.

In the case of `C1CN(SSN2CCOCC2)CCO1`, the GI50 with SK-MEL-2 melanoma was more than 100 µM; in the assay with NCI-H522 lung it was 22.2 µM; in the assay on MDA-MB-231 breast it was 92.8 µM; in the assay on SF-539 CNS, 24.3 µM; in the assay on SW-620 colon it was 19.4 µM; in the assay with TK-10 renal, more than 100 µM. The GI50 in the assay on EKVX NSCLC is more than 100 µM; with OVCAR-8 ovarian it was 52.1 µM; with SK-MEL-5 melanoma it was 41.1 µM; with SN12C renal, 26.6 µM. For the same compound, the TGI in the assay on SK-MEL-2 melanoma is more than 100 µM; in the assay with NCI-H522 lung, 64.8 µM; in the assay on MDA-MB-231 breast it was more than 100 µM; with SF-539 CNS it was 80.7 µM; with SW-620 colon, 42 µM; with TK-10 renal it was more than 100 µM. For the same compound, the TGI in the assay with EKVX NSCLC is more than 100 µM; in the assay on OVCAR-8 ovarian it was more than 100 µM; in the assay on SK-MEL-5 melanoma, more than 100 µM; in the assay on SN12C renal it was 77.8 µM.
